Measurements reported in the supplement of paper PMC12420376.

System: OVCAR8
Assay: cancer cell viability relative to untreated control; higher = less cytotoxic
Conditions: 72 h
Procedure: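 KURAMOCHI or OVCAR8 cells were grown in monoculture or in co-culture with WI38 or patient-derived 030F fibroblasts and treated for 72 h with a dose matrix of carboplatin combined with birinapant or vorinostat (doses in nM). Cancer cell viability was measured by CK8/18 immunofluorescence imaging and expressed as % of untreated control, given as mean with SD.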

O=C(O)C1(C(=O)O)CCC1.[NH2-].[NH2-].[Pt+2] [Carboplatin] + CC[C@H](NC(=O)[C@H](C)NC)C(=O)N1C[C@@H](O)C[C@H]1Cc1c(-c2[nH]c3cc(F)ccc3c2C[C@@H]2C[C@H](O)CN2C(=O)[C@H](CC)NC(=O)[C@H](C)NC)[nH]c2cc(F)ccc12 [Birinapant]
cancer cell viability [%]
Conditions | partner drug concentration 0 nM | partner drug concentration 0.1 nM | partner drug concentration 1 nM | partner drug concentration 10 nM | partner drug concentration 100 nM | partner drug concentration 1000 nM
carboplatin concentration 10 nM, co-cultured fibroblast: 030F | 95.9 | 93.4 | 86.9 | 85.6 | 53.2 | 11.3
carboplatin concentration 10 nM, co-cultured fibroblast: WI38 | 112 | 112 | 98.5 | 99.2 | 59.9 | 9.28
carboplatin concentration 10 nM, co-cultured fibroblast: none (monoculture) | 100 | 107 | 102 | 96.1 | 68.1 | 14.5
carboplatin concentration 100 nM, co-cultured fibroblast: 030F | 97.7 | 89.9 | 85.8 | 92.3 | 46 | 12.3
carboplatin concentration 100 nM, co-cultured fibroblast: WI38 | 103 | 101 | 102 | 98.1 | 52.4 | 10.8
carboplatin concentration 100 nM, co-cultured fibroblast: none (monoculture) | 101 | 99.5 | 101 | 103 | 71.7 | 13.4
carboplatin concentration 1000 nM, co-cultured fibroblast: 030F | 96.9 | 83.5 | 90.8 | 96.9 | 50.5 | 14.7
carboplatin concentration 1000 nM, co-cultured fibroblast: WI38 | 107 | 98.1 | 104 | 92.6 | 56.6 | 9.2
carboplatin concentration 1000 nM, co-cultured fibroblast: none (monoculture) | 101 | 102 | 98.6 | 105 | 79.7 | 16.3
carboplatin concentration 1e+05 nM, co-cultured fibroblast: 030F | 23.2 | 34.9 | 41.2 | 34.2 | 15.9 | 8.74
carboplatin concentration 1e+05 nM, co-cultured fibroblast: WI38 | 10.6 | 36.2 | 51.3 | 40.3 | 21.4 | 3
carboplatin concentration 1e+05 nM, co-cultured fibroblast: none (monoculture) | 23.1 | 61 | 58.4 | 60.6 | 46.2 | 6.42
carboplatin concentration 10000 nM, co-cultured fibroblast: 030F | 52.3 | 72.4 | 90.8 | 85.1 | 34.3 | 9.13
carboplatin concentration 10000 nM, co-cultured fibroblast: WI38 | 41.6 | 82.3 | 89.1 | 95.9 | 49.7 | 7.2
carboplatin concentration 10000 nM, co-cultured fibroblast: none (monoculture) | 56.5 | 90.3 | 92.5 | 100 | 64.8 | 12.6

O=C(O)C1(C(=O)O)CCC1.[NH2-].[NH2-].[Pt+2] [Carboplatin] + O=C(CCCCCCC(=O)Nc1ccccc1)NO [Vorinostat]
cancer cell viability [%]
Conditions | partner drug concentration 0 nM | partner drug concentration 1 nM | partner drug concentration 10 nM | partner drug concentration 100 nM | partner drug concentration 1000 nM | partner drug concentration 10000 nM
carboplatin concentration 10 nM, co-cultured fibroblast: 030F | 95.9 | 98.7 | 97.7 | 61.9 | 16.7 | 1.47
carboplatin concentration 10 nM, co-cultured fibroblast: WI38 | 112 | 95.4 | 93.8 | 57.2 | 13 | -0.353
carboplatin concentration 10 nM, co-cultured fibroblast: none (monoculture) | 100 | 118 | 106 | 77.6 | 12.5 | -1.11
carboplatin concentration 100 nM, co-cultured fibroblast: 030F | 97.7 | 88.3 | 82.6 | 53.7 | 17.5 | 0.669
carboplatin concentration 100 nM, co-cultured fibroblast: WI38 | 103 | 98.1 | 88.4 | 53.3 | 11.5 | -0.268
carboplatin concentration 100 nM, co-cultured fibroblast: none (monoculture) | 101 | 108 | 109 | 58.4 | 20.6 | -0.748
carboplatin concentration 1000 nM, co-cultured fibroblast: 030F | 96.9 | 93 | 94.1 | 50.7 | 15.3 | 1.7
carboplatin concentration 1000 nM, co-cultured fibroblast: WI38 | 107 | 96.1 | 86 | 45.4 | 14.6 | -0.251
carboplatin concentration 1000 nM, co-cultured fibroblast: none (monoculture) | 101 | 111 | 102 | 63.4 | 17.2 | -1.67
carboplatin concentration 1e+05 nM, co-cultured fibroblast: 030F | 23.2 | 30.2 | 32.9 | 22.8 | 15.3 | 0.46
carboplatin concentration 1e+05 nM, co-cultured fibroblast: WI38 | 10.6 | 34.2 | 33.1 | 22.9 | 13.3 | -0.83
carboplatin concentration 1e+05 nM, co-cultured fibroblast: none (monoculture) | 23.1 | 57.5 | 51.6 | 24.6 | 17.1 | -3.4
carboplatin concentration 10000 nM, co-cultured fibroblast: 030F | 52.3 | 78.3 | 64.7 | 37.2 | 19.1 | 1.01
carboplatin concentration 10000 nM, co-cultured fibroblast: WI38 | 41.6 | 74.9 | 68.8 | 47.1 | 19 | -0.481
carboplatin concentration 10000 nM, co-cultured fibroblast: none (monoculture) | 56.5 | 89.7 | 89.7 | 65.2 | 26.8 | -0.768
